Laboratory results reported in patent US11053204B2, “Pyrimidinyloxy benzene derivatives as herbicides” (FMC Corporation, priority 2015, dated 2021).

What was measured:
Type in all cases: in vivo
[1] = system: galium (catchweed bedstraw, Galium aparine); test: Test C preemergence, plant response rating
[2] = system: johnsongrass (Sorghum halepense); test: Test C preemergence, plant response rating
[3] = system: barnyardgrass (Echinochloa crus-galli); test: Test C preemergence, plant response rating; conditions: Preemergence
[4] = system: nightshade (eastern black nightshade, Solanum ptycanthum); test: Test C preemergence, plant response rating
[5] = system: wild poinsettia (Euphorbia heterophylla); test: Test C preemergence, plant response rating
[6] = system: windgrass (Apera spica-venti); test: Test C preemergence, plant response rating
[7] = system: oat, wild (wild oat Avena fatua); test: Test C preemergence, plant response rating
[8] = system: Canada thistle (Cirsium arvense); test: Test C postemergence, plant response rating; conditions: for Canada Thistle plant response rating: scale 0 to 100 (0 no effect, 100 complete control)
In short: (§1)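 Greenhouse plants rated visually against untreated controls 13–15 d after treatment, scale 0 = no effect to 100 = complete control. Postemergence sprays went onto potted plants 2–18 cm tall (1–4 leaves); preemergence sprays onto soil freshly sown in loam–sand or silt loam, chemicals formulated in non-phytotoxic solvent with surfactant.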

[9] = system: buckwheat, wild (wild buckwheat, Polygonum convolvulus); test: Test C postemergence, plant response rating; conditions: for Buckwheat, Wild plant response rating: scale 0 to 100 (0 no effect, 100 complete control)
In short: as §1

[10] = system: field poppy (Papaver rhoeas); test: Test C postemergence, plant response rating; conditions: for Field Poppy plant response rating: scale 0 to 100 (0 no effect, 100 complete control)
In short: as §1

[11] = system: field violet (Viola arvensis); test: Test C postemergence, plant response rating; conditions: for Field Violet plant response rating: scale 0 to 100 (0 no effect, 100 complete control)
In short: as §1

[12] = system: geranium, cutleaf (cutleaf geranium, Geranium dissectum); test: Test C postemergence, plant response rating; conditions: for Geranium, Cutleaf plant response rating: scale 0 to 100 (0 no effect, 100 complete control)
In short: as §1

[13] = system: johnsongrass (Sorghum halepense); test: Test C postemergence, plant response rating; conditions: for Johnsongrass plant response rating: scale 0 to 100 (0 no effect, 100 complete control)
In short: as §1

[14] = system: nightshade (eastern black nightshade, Solanum ptycanthum); test: Test C postemergence, plant response rating; conditions: for Nightshade plant response rating: scale 0 to 100 (0 no effect, 100 complete control)
In short: as §1

[15] = system: pigweed, palmer (palmer pigweed, Amaranthus palmeri); test: Test C postemergence, plant response rating; conditions: for Pigweed, Palmer plant response rating: scale 0 to 100 (0 no effect, 100 complete control)
In short: as §1

[16] = system: speedwell (bird's-eye speedwell, Veronica persica); test: Test C postemergence, plant response rating; conditions: for Speedwell plant response rating: scale 0 to 100 (0 no effect, 100 complete control)
In short: as §1

[17] = system: surinam grass (Brachiaria decumbens); test: Test C postemergence, plant response rating
In short: as §1

[18] = system: wild poinsettia (Euphorbia heterophylla); test: Test C postemergence, plant response rating; conditions: for Poinsettia, Wild plant response rating: scale 0 to 100 (0 no effect, 100 complete control)
In short: as §1

[19] = system: windgrass (Apera spica-venti); test: Test C postemergence, plant response rating
In short: as §1

[20] = 125 g ai/ha, scale 0 to 100 (0 no effect, 100 complete control)

Question: For N#CC(CCCC(F)(F)F)c1ccccc1Oc1ncc(Cl)cn1 (centres unmarked) [Compound 144], which “Plant response rating, Galium” value ([1]; 31 g ai/ha, scale 0 to 100) is on record?
Answer: 50

Question: What about the “Plant response rating, Galium” value ([1]; 62 g ai/ha, scale 0 to 100) of the same molecule?
Answer: 50

Question: And the “Plant response rating, Galium” value ([1]; 125 g ai/ha, scale of 0 to 100)?
Answer: 55

Question: And the “Plant response rating, Johnsongrass” value ([2]; 31 g ai/ha, scale 0 to 100)?
Answer: 10

Question: What about the “Plant response rating, Johnsongrass” value ([2]; 62 g ai/ha, scale 0 to 100) of the same molecule?
Answer: 40

Question: What about the “Plant response rating, Johnsongrass” value ([2]; 125 g ai/ha, scale of 0 to 100) of the same molecule?
Answer: 70

Question: What about the “Plant response rating, Barnyardgrass” value ([3]; 125 g ai/ha, scale of 0 to 100) of the same molecule?
Answer: 95

Question: And the “Plant response rating, Barnyardgrass” value ([3]; 16 g ai/ha, scale 0 to 100)?
Answer: 10

Question: And the “Plant response rating, Barnyardgrass” value ([3]; 31 g ai/ha, scale 0 to 100)?
Answer: 40

Question: And the “Plant response rating, Barnyardgrass” value ([3]; 62 g ai/ha, scale 0 to 100)?
Answer: 70

Question: What about the “Plant response rating, Nightshade” value ([4]; 31 g ai/ha, scale 0 to 100) of the same molecule?
Answer: 65

Question: What about the “Plant response rating, Nightshade” value ([4]; 62 g ai/ha, scale 0 to 100) of the same molecule?
Answer: 90

Question: And the “Plant response rating, Nightshade” value ([4]; 125 g ai/ha, scale of 0 to 100)?
Answer: 100

Question: What about the “Plant response rating, Poinsettia, Wild” value ([5]; 31 g ai/ha, scale 0 to 100) of the same molecule?
Answer: 5

Question: What about the “Plant response rating, Poinsettia, Wild” value ([5]; 62 g ai/ha, scale 0 to 100) of the same molecule?
Answer: 40

Question: What about the “Plant response rating, Poinsettia, Wild” value ([5]; 125 g ai/ha, scale of 0 to 100) of the same molecule?
Answer: 80

Question: What about the “Plant response rating, Windgrass” value ([6]; 31 g ai/ha, scale 0 to 100) of the same molecule?
Answer: 30

Question: And the “Plant response rating, Windgrass” value ([6]; 62 g ai/ha, scale 0 to 100)?
Answer: 80

Question: And the “Plant response rating, Windgrass” value ([6]; 125 g ai/ha, scale of 0 to 100)?
Answer: 90

Question: What about the “Plant response rating, Oat, Wild” value ([7]; 31 g ai/ha, scale 0 to 100) of the same molecule?
Answer: 5

Question: What about the “Plant response rating, Oat, Wild” value ([7]; 62 g ai/ha, scale 0 to 100) of the same molecule?
Answer: 10

Question: What about the “Plant response rating, Oat, Wild” value ([7]; 125 g ai/ha, scale of 0 to 100) of the same molecule?
Answer: 10

Question: And the “Plant response rating, Canada Thistle” value ([8]; 16 g ai/ha, scale of 0 to 100)?
Answer: 90

Question: What about the “Plant response rating, Canada Thistle” value ([8]; 31 g ai/ha, scale 0 to 100) of the same molecule?
Answer: 60

Question: And the “Canada Thistle plant response rating” value ([8]; 62 g ai/ha)?
Answer: 90

Question: And the “Canada Thistle plant response rating” value ([8]; 125 g ai/ha)?
Answer: 90

Question: What about the “Plant response rating, Buckwheat, Wild” value ([9]; 16 g ai/ha, scale of 0 to 100) of the same molecule?
Answer: 70

Question: And the “Plant response rating, Buckwheat, Wild” value ([9]; 31 g ai/ha, scale 0 to 100)?
Answer: 55

Question: And the “Buckwheat, Wild plant response rating” value ([9]; 62 g ai/ha)?
Answer: 80

Question: What about the “Buckwheat, Wild plant response rating” value ([9]; 125 g ai/ha) of the same molecule?
Answer: 95

Question: What about the “Plant response rating, Field Poppy” value ([10]; 16 g ai/ha, scale of 0 to 100) of the same molecule?
Answer: 60

Question: What about the “Plant response rating, Field Poppy” value ([10]; 31 g ai/ha, scale 0 to 100) of the same molecule?
Answer: 80

Question: And the “Field Poppy plant response rating” value ([10]; 62 g ai/ha)?
Answer: 90

Question: And the “Field Poppy plant response rating” value ([10]; 125 g ai/ha)?
Answer: 100

Question: What about the “Plant response rating, Field Violet” value ([11]; 16 g ai/ha, scale of 0 to 100) of the same molecule?
Answer: 60

Question: And the “Plant response rating, Field Violet” value ([11]; 31 g ai/ha, scale 0 to 100)?
Answer: 65

Question: What about the “Field Violet plant response rating” value ([11]; 62 g ai/ha) of the same molecule?
Answer: 80

Question: And the “Field Violet plant response rating” value ([11]; 125 g ai/ha)?
Answer: 90

Question: What about the “Plant response rating, Geranium, Cutleaf” value ([12]; 16 g ai/ha, scale of 0 to 100) of the same molecule?
Answer: 15

Question: And the “Plant response rating, Geranium, Cutleaf” value ([12]; 31 g ai/ha, scale 0 to 100)?
Answer: 20

Question: What about the “Geranium, Cutleaf plant response rating” value ([12]; 62 g ai/ha) of the same molecule?
Answer: 35

Question: What about the “Geranium, Cutleaf plant response rating” value ([12]; 125 g ai/ha) of the same molecule?
Answer: 40

Question: And the “Plant response rating, Johnsongrass” value ([13]; 16 g ai/ha, scale of 0 to 100)?
Answer: 5

Question: And the “Plant response rating, Johnsongrass” value ([13]; 31 g ai/ha, scale 0 to 100)?
Answer: 5

Question: What about the “Johnsongrass plant response rating” value ([13]; 62 g ai/ha) of the same molecule?
Answer: 5

Question: And the “Johnsongrass plant response rating” value ([13]; 125 g ai/ha)?
Answer: 5

Question: What about the “Plant response rating, Nightshade” value ([14]; 16 g ai/ha, scale of 0 to 100) of the same molecule?
Answer: 65

Question: And the “Plant response rating, Nightshade” value ([14]; 31 g ai/ha, scale 0 to 100)?
Answer: 75

Question: What about the “Nightshade plant response rating” value ([14]; 62 g ai/ha) of the same molecule?
Answer: 75

Question: And the “Nightshade plant response rating” value ([14]; 125 g ai/ha)?
Answer: 90

Question: And the “Plant response rating, Pigweed, Palmer” value ([15]; 16 g ai/ha, scale of 0 to 100)?
Answer: 25

Question: What about the “Plant response rating, Pigweed, Palmer” value ([15]; 31 g ai/ha, scale 0 to 100) of the same molecule?
Answer: 35

Question: And the “Pigweed, Palmer plant response rating” value ([15]; 62 g ai/ha)?
Answer: 40

Question: What about the “Pigweed, Palmer plant response rating” value ([15]; 125 g ai/ha) of the same molecule?
Answer: 80

Question: What about the “Plant response rating, Speedwell” value ([16]; 16 g ai/ha, scale of 0 to 100) of the same molecule?
Answer: 60

Question: What about the “Plant response rating, Speedwell” value ([16]; 31 g ai/ha, scale 0 to 100) of the same molecule?
Answer: 70

Question: And the “Speedwell plant response rating” value ([16]; 62 g ai/ha)?
Answer: 95

Question: What about the “Speedwell plant response rating” value ([16]; 125 g ai/ha) of the same molecule?
Answer: 95

Question: And the “Plant response rating, Surinam Grass” value ([17]; 16 g ai/ha, scale of 0 to 100)?
Answer: 10

Question: What about the “Plant response rating, Surinam Grass” value ([17]; 31 g ai/ha, scale 0 to 100) of the same molecule?
Answer: 20

Question: What about the “Surinam Grass plant response rating” value [17, 20] of the same molecule?
Answer: 25

Question: What about the “Plant response rating, Poinsettia, Wild” value ([18]; 16 g ai/ha, scale of 0 to 100) of the same molecule?
Answer: 30

Question: And the “Plant response rating, Poinsettia, Wild” value ([18]; 31 g ai/ha, scale 0 to 100)?
Answer: 35

Question: And the “Poinsettia, Wild plant response rating” value ([18]; 62 g ai/ha)?
Answer: 50

Question: And the “Poinsettia, Wild plant response rating” value ([18]; 125 g ai/ha)?
Answer: 60

Question: What about the “Plant response rating, Windgrass” value ([19]; 16 g ai/ha, scale of 0 to 100) of the same molecule?
Answer: 10

Question: And the “Plant response rating, Windgrass” value ([19]; 31 g ai/ha, scale 0 to 100)?
Answer: 10

Question: And the “Windgrass plant response rating” value [19, 20]?
Answer: 30
